“Also recorded” adds a separate entry of the source. Where two headings read alike, the source gives them in different places.
Columns and labels:
[1] = test system: PBMCs; format: cell-based, human
Experimental: For the T reg assays, PBMCs were thawed according standard procedure, labeled with carboxyfluorescein succinimidyl ester (CFSE), and rested overnight in 96 well culture plate prior to use in in vitro assays. To evaluate the dose response of FV621 on the viability, cells were incubated with FV621 for 2, 3, 5 and 7 days in culture and live cells evaluated by flow cytometry using a live-dead viability dye and by counting in a cellometer (Nexcelom) using trypan blue exclusion. […]
To rule out the possibility that the effect of FV621 was related to toxic effects of the peptide, which might simulate a suppressive effect in vitro, we evaluated the viability of cells in culture with FV621 using two different methods. Cells were cultured in the presence of FV621 in a 96 well plate for 2, 3, 5 and 7 days after which cells were collected and stained with live-dead viability dye and analyzed by flow cytometry (data not shown) and by trypan blue exclusion and counting with a cellometer (Nexcelom). The absolute number of live cells that was counted at days 2, 3, 5 and 7 after stimulation with different doses of FV621 Tregitope was similar by flow cytometry.

[2] = test system: HLA-DRB1*0101, *0301, *0401, *0701, *1101, *1301 and *1501 alleles; experiment: In vitro HLA DRB1 binding assay, panel of seven alleles; design: species or system human; conditions: for breadth of binding to HLA DRB1 alleles: seven alleles
Experimental: The six FV peptides were tested for in vitro binding to HLA-DRB1*0101, *0301, *0401, *0701, *1101, *1301 and *1501 alleles.

[3] = test system: CD4+CD25+FoxP3+ regulatory T cells; format: cell-based, human
[4] = test system: CD4+ effector memory T cells; experiment: Suppression of Tetanus Toxoid stimulated CD4+ effector T cells in PBMC; format: cell-based, human
Experimental: Previously harvested and frozen PBMC were thawed and suspended in conditioned chRPMI (3.3×10^6 cells/mL) by conventional means. Cells were stained with CFSE (Cat #: 65-0850-84, Affymetrix, Santa Clara, Calif.) and plated at 300,000 cells per well. Plates were incubated overnight (37° C. in 5% CO2). […] Previous titration experiments performed at EpiVax (EpiVax, Providence, R.I.) have established that stimulation with 0.5 μg/ml Tetanus Toxoid (TT) (Astarte Biologics, Bothell, Wash.) elicits a measurable CD4+ effector memory T cells response in PBMC drawn from healthy control donors (Rhode Island Blood Center, Providence, R.I.). Tetanus Toxoid stock (100 μg/mL) (Astarte Biologics, Bothell, Wash.) was diluted in conditioned chRPMI yielding a working concentration of 1 ug/mL. […] All plates were then incubated for six additional days. On assay day five, 100 μL of supernatant was removed from each well and replaced with freshly conditioned chRPMI.
On assay day seven, cells were removed from incubation. Cells were labeled for live/dead discrimination, for surface markers CD127, CCR7, CD4, CD45RA, and CD25 and for intracellular FoxP3. Stained cells were further prepared for FACS analysis by conventional means. Cells were first gated to eliminate aggregates and dead cells. Live cells were gated for CD4 T cells and all subsequent analysis was done on this population. The activated Teffector population was identified as the CD4+/CD25-high/FoxP3-intermediate (CD4+/CD25^1/FoxP3int) (FIG. 8A).
Proliferation of CD4+/CD25-high (CD4^+/CD25^hi) T cells was estimated from the dilution of the CFSE stain (Cat #: 65-0850-84, Affymetrix, Santa Clara, Calif.) and % proliferation determined by the CFSE-low (CFSEL^lo) population (FIG. 8B).

[5] = test system: CD4+ T cells in PBMCs from healthy donors; experiment: Tetanus Toxoid Bystander Suppression Assay (TTBSA); format: cell-based, human
[6] = test system: panel of five common Class II HLA alleles: HLA-DRB1*0101, HLA-DRB1*0301, HLA-DRB1*0701, HLA-DRB1*1101, and HLA-DRB1*1501; experiment: Soluble HLA competition binding assay, panel of five alleles; design: species or system human
Experimental: HLA Binding Assay. Binding activity was analyzed atEpiVax (Providence, R.I.). The binding assay used (Steere A C et al., (2006), J Exp Med, 2003(4):961-71) yielded an indirect measure of peptide-MHC affinity. Soluble HLA molecules were loaded onto a 96-well plate with the unlabeled experimental Tregitopes and labeled control peptide. Once the binding mixture reached steady equilibrium (at 24 hours), the HLA-Tregitope complexes were captured on an ELISA plate coated with anti-human DR antibody and detected with a Europium-linked probe for the label (PerkinElmer, Waltham, Mass.). Time-resolved fluorescence measuring bound labeled control peptide is assessed by a SpectraMax® M5 unit (Spectramax, Radnor, Pa.). Binding of experimental Tregitopes was expressed as the percent inhibition of the labeled control peptide (experimental fluorescence/control fluorescence multiplied by 100). […]
CD4+ effector memory T cells contained within PBMC cell populations can be induced to proliferate in response to stimulation with known T cell epitopes. […] Binding of experimental Tregitopes is expressed as the percent inhibition of the labeled control peptide (experimental fluorescence/control fluorescence multiplied by 100). […]

[7] = test system: human DR molecules; conditions: cited from earlier work
[8] = test system: PBMCs from lupus patients; conditions: cited from earlier work
[9] = target: HLA DRB1*1101 (Homo sapiens, UniProt P01903+P01911, A100R/A169T/A87E/I96F/K41T/L162R/M171V/P40S/Q125H/Q178H/Q39Y/Q99D/R42S/S66Y/T262R/V115G/W38E); experiment: HLA DRB1 (IC50) | *1101
HLA DRB1*1101, sequence (P01903 26-254 limits assumed, other chains not shown): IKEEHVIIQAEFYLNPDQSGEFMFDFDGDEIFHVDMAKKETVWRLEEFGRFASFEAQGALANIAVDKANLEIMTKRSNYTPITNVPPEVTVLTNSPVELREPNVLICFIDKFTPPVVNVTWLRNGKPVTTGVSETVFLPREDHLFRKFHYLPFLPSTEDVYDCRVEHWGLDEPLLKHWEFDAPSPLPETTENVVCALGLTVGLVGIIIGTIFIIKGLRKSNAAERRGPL

[10] = target: HLA DRB1*0701 (Homo sapiens, UniProt P01903+P01911, A100R/A102G/A103Q/D57E/D86V/E43K/F76Y/K127E/L162R/M171V/P40G/Q125H/Q99D/R33Q/R42Y/R54Q/S133A/S66F/T210M/V115G/Y107V/Y59L/Y89S); experiment: HLA DRB1 (IC50) | *0701
[11] = target: HLA DRB1*0401 (Homo sapiens, UniProt P01903+P01911, A100K/A169T/F76Y/I96L/K127E/L162R/M171V/N62H/P40V/Q125Y/R42H/S133A/S149N/S66Y/V115G/V209L/W38E); experiment: HLA DRB1 (IC50) | *0401
[12] = PBMC from three HLA-diverse donors

In the case of `CC[C@H](C)[C@H](NC(C)=O)C(=O)N[C@@H](CC(C)C)C(=O)N[C@H](C(=O)N[C@H](C(=O)N[C@@H](Cc1c[nH]cn1)C(=O)N[C@@H](Cc1ccccc1)C(=O)N[C@H](C(=O)NCC(=O)N[C@@H](Cc1c[nH]cn1)C(=O)N[C@@H](CO)C(=O)N[C@@H](Cc1ccccc1)C(=O)N[C@H](C(=O)N[C@@H](Cc1ccc(O)cc1)C(=O)NCC(=O)N[C@@H](CCCCN)C(N)=O)[C@@H](C)CC)[C@@H](C)O)[C@@H](C)CC)[C@@H](C)O` [SEQ ID NO: 1], the “absolute number of live cells by flow cytometry” value ([1]; days 2, 3, 5 and 7, different doses) is reported as “similar” and the “decreased viability by trypan blue exclusion” value ([1]; highest dose) is reported as 10-15%.

With `CC[C@H](C)[C@H](NC(=O)[C@H](CO)NC(=O)[C@H](Cc1ccc(O)cc1)NC(=O)[C@@H]1CCCN1C(=O)[C@H](CCCNC(=N)N)NC(=O)[C@H](CO)NC(=O)[C@H](C)NC(=O)[C@H](CCSC)NC(=O)[C@H](CC(N)=O)NC(=O)[C@H](CCCCN)NC(=O)[C@H](Cc1ccccc1)NC(=O)[C@@H](NC(=O)[C@@H](NC(=O)[C@H](CCCCN)NC(C)=O)[C@@H](C)CC)C(C)C)C(=O)N[C@@H](Cc1ccc(O)cc1)C(N)=O` [SEQ ID NO: 3] the “binding affinity to HLA DR alleles (in words)” value ([2]; across the alleles tested) was “strong affinity”, the “breadth of binding to HLA DRB1 alleles” value ([2]; listed as FV432) was “binding to nearly all of the HLA DRB1 alleles tested; also recorded: bind to multiple HLA DRB1 alleles” and the “relative proportion of highly proliferative regulatory T cells (CFSE low FoxP3+) among CD25+ Granzyme B+ CD4+ T cells” value [3] was “no significant effect”. For the same compound, the “activated (CD25 high) proliferating (CFSE low) CD4 T cells stimulated by Tetanus Toxoid” value [4] was “no significant inhibitory effect”, the “activated effector CD4+ T cells (CD4+/CD25-high/FoxP3-intermediate) reacting to Tetanus Toxoid” value [4] was “no appreciable effect” and the “proliferation of CD4− cells” value ([4]; FIG. 11) was “little inhibitory effect”. The “proliferation of total CD4+ T cells (CFSE low)” value ([4]; donor 114, dose-dependent) was “little to no effect” and the “inhibition of the CD4+ T memory response / T effector proliferation in the TTBSA” value [5] was “did not inhibit”.

With `CC[C@H](C)[C@H](NC(=O)[C@H](CC(C)C)NC(=O)[C@H](CC(C)C)NC(=O)[C@@H]1CCCN1C(=O)CNC(=O)[C@@H](NC(=O)[C@H](CC(C)C)NC(=O)CNC(=O)[C@H](CO)NC(=O)[C@H](Cc1c[nH]cn1)NC(=O)[C@@H](NC(=O)[C@H](CC(=O)O)NC(=O)[C@H](CCCCN)NC(=O)[C@H](CCC(=O)O)NC(C)=O)[C@@H](C)CC)[C@@H](C)CC)C(N)=O` [SEQ ID NO: 6] the “breadth of binding to HLA DRB1 alleles” value ([2]; listed as FV1737) was “somewhat more restricted in the breadth of binding; also recorded: more limited binding to HLA DR”, the HLA binding profile [6] was “highly-restricted HLA binding profiles” and the “inhibition of the CD4+ T memory response / T effector proliferation in the TTBSA” value [5, 12] was “did not inhibit”.

With `CC(=O)N[C@@H](Cc1ccccc1)C(=O)N[C@@H](C)C(=O)N[C@H](C(=O)N[C@@H](Cc1ccccc1)C(=O)N[C@@H](CC(=O)O)C(=O)N[C@@H](CCC(=O)O)C(=O)N[C@@H](CC(N)=O)C(=O)N[C@@H](CCCCN)C(=O)N[C@@H](CO)C(=O)N[C@@H](Cc1c[nH]c2ccccc12)C(=O)N[C@@H](Cc1ccc(O)cc1)C(=O)N[C@@H](CC(C)C)C(=O)N[C@@H](CCC(=O)O)C(=O)N[C@@H](CC(=O)O)C(=O)N[C@@H](CC(N)=O)C(N)=O)C(C)C` [SEQ ID NO: 4] the “breadth of binding to HLA DRB1 alleles” value ([2]; listed as FV548) was “somewhat more restricted in the breadth of binding; also recorded: more limited binding to HLA DR”, the HLA binding profile [6] was “highly-restricted HLA binding profiles” and the “inhibition of the CD4+ T memory response / T effector proliferation in the TTBSA” value [5, 12] was “did not inhibit”.

In the case of “RIHMVYSKRSGKPRGYAFIEY (listed as Homo sapiens) [peptide 131-151, residues 131-151 of the spliceosome protein]”, the “binding to human DR molecules” value [7] is listed as “binds to a large panel of human DR molecules” and the “randomly selected lupus patients whose PBMCs contain T cells that proliferate in response to the peptide” value [8] is listed as 40%.

For `CC[C@H](C)[C@H](NC(=O)[C@@H](NC(=O)[C@H](CC(C)C)NC(=O)[C@@H](NC(=O)[C@H](Cc1ccccc1)NC(=O)[C@H](CC(=O)O)NC(=O)[C@@H](NC(=O)CN)[C@@H](C)O)[C@@H](C)O)[C@@H](C)O)C(=O)N[C@@H](CO)C(=O)N[C@@H](CO)C(=O)N[C@@H](CC(C)C)C(=O)N[C@@H](CCC(N)=O)C(=O)N1CCC[C@H]1C(=O)N[C@@H](CCC(=O)O)C(=O)N[C@@H](CC(=O)O)C(=O)O` [SEQ ID NO: 117 | Tregitope 084, GTDFTLTISSLQPED], the IC50 [9] was 100 µM, the IC50 [10] was < 1 µM and the IC50 [11] was < 1 µM.

Reference: patent US20230279072A1, “REGULATORY T CELL EPITOPES” (EpiVax Inc., priority 2020, published 2023)
